Test results published in US20210403498A1, “PHYTOCHEMICAL-FRUCTOOLIGOSACCHARIDE CONJUGATE, METHOD FOR PRODUCING SAME, AND USE THEREOF” (EVERGREEN BIO CO., LTD., priority 2018, published 2021).
≈ marks a conversion by molar mass, not a printed value. Like-named read-outs stand apart in the source and are kept apart here.

How the values were obtained:
[1] = test system: HT-29 (Colorectal adenocarcinoma); experiment: CCK-8 cell proliferation, colorectal cancer cells; assay type: cell-based, human; settings: for IC50: HT-29, 72 hr, CCK-8; for SI (Selectivity Index): IC50 for Normal cell (CCD 18Co)/IC50 for HT-29
Method: (§1) Specifically, the cell lines cultured in each well of a 96-well plate were dispensed at a density of 18,000 cells per well and cultured overnight, and then the cells were treated with drugs dissolved in various concentrations in the culture medium, and were incubated for 72 hr under a temperature of 37° C. and 5% CO2 condition in a humidified incubator. After completion of the culture, the medium was removed and replaced with 100 μl of PBS, and […] Cell Counting Kit-8 (CCK-8; Dojindo, Japan) solution was added thereto, and the cells were incubated for 3 hr for reaction. Thereafter, the degree of color development of the reaction solution was measured based on absorbance at 450 nm, and the number of cell proliferation was calculated according to the instructions of the producing company.
(§2) HT-29 cells were cultured in McCoy's 5A medium, LoVo cells were cultured in Ham's F-12K (Kaigh's) medium, CCD 18Co cells were cultured in DMEM. Before use, 10% Fetal bovine serum and 100 U/ml penicillin, streptomycin were added to all media.

[2] = test system: Lovo (Colorectal adenocarcinoma capable of metastasis); experiment: CCK-8 cell proliferation, metastasis colorectal cancer cells; assay type: cell-based, human; settings: for IC50: Lovo, 72 hr, CCK-8; for SI (Selectivity Index): IC50 for Normal cell (CCD 18Co)/IC50 for Lovo
Method: as §1, §2

[3] = test system: CCD 18Co (Normal Human colon fibroblast primary cell line); experiment: CCK-8 cell proliferation, normal colon cells; assay type: cell-based; settings: 72 hr
Method: as §1, §2

[4] = In vivo pharmacokinetics in rats (FA in plasma, LC MS/MS); settings: male, Sprague Dawley; rat plasma, single oral dose 100 mg/kg FA
Method: In order to evaluate the in vivo pharmacokinetics of FA-FOS II, the release profile of ferulic acid (FA) released from FA-FOS II in the colon of rats was investigated. Specifically, male Sprague Dawley rats weighing 180 to 250 g were randomly assigned to three groups as follows.
(ii) Ferulic acid (FA) administered group: a drug is prepared by dissolving ferulic acid (FA) in water and is administered orally thereto at a predetermined dose
(iii) FA-FOS II administered group: a drug is prepared by dissolving FA-FOS II in water and is administered orally thereto at a predetermined dose
Ferulic acid (FA) was orally administered to the rats at a dose of 100 mg/kg body weight, based on the amount of ferulic acid (FA), in the state dissolved in sterile water. Further, FA-FOS II was orally administered thereto at a dose of 3.89 g/kg body weight (equivalent to 100 mg/kg body weight in terms of the amount of ferulic acid) based on the amount of FA-FOS II, in the state dissolved in sterile water. After single dose administration via oral intake, rat blood was continuously sampled over 0, 0.5, 1, 3, 6, 8, 12, 24 hr. The sampled samples were subjected to LC MS/MS analysis in a multiple reaction monitoring (MRM) manner of a molecular weight 193.0/133.9 Da (intact mass/fragment mass of FA) to quantify the FA released from plasma.

IC50 ([1]; Homo sapiens, read-out: IC50) [µg/mL]	IC50 ([2]; Homo sapiens, read-out: IC50) [µg/mL]	Tmax [4] [min]	half-life [4] [min]	SMILES	SI (Selectivity Index) [1]	SI (Selectivity Index) [2]	IC50 ([3]; Homo sapiens, read-out: IC50) [µg/mL]	IC50 [1] [µg/mL]	IC50 [2] [µg/mL]	IC50 [3] [µg/mL]
0.2 (≈ 1.03 µM)	0.244 (≈ 1.26 µM)	~5	~30	COc1cc(/C=C/C(=O)O)ccc1O [FA, ferulic acid]	(SI: >2.918)	(SI: >2.389)	0.583 (≈ 3 µM)	–	–	–
0.008 (≈ 0.0615 µM)	0.074 (≈ 0.569 µM)	–	–	O=c1[nH]cc(F)c(=O)[nH]1 [5-Fluorouracil, 5-fluorouracil]	(SI: 1.685)	(SI: 0.186)	0.014 (≈ 0.108 µM)	–	–	–
–	–	–	–	O=C1[O][Pt]2([NH][C@@H]3CCCC[C@H]3[NH]2)[O]C1=O [Oxaliplatin, oxaliplatin]	(SI: 6.631)	(SI: 1.473)	–	0.015	0.068	0.100
